Source: ChEMBL document CHEMBL1143034, “The screening and characterization of 6-aminopurine-based xanthine oxidase inhibitors” (Bioorg Med Chem, 2007)

target: T1, Xanthine dehydrogenase/oxidase (Homo sapiens, UniProt P47989); assay: Inhibition of human xanthine oxidase
T1 sequence (P47989 whole entry): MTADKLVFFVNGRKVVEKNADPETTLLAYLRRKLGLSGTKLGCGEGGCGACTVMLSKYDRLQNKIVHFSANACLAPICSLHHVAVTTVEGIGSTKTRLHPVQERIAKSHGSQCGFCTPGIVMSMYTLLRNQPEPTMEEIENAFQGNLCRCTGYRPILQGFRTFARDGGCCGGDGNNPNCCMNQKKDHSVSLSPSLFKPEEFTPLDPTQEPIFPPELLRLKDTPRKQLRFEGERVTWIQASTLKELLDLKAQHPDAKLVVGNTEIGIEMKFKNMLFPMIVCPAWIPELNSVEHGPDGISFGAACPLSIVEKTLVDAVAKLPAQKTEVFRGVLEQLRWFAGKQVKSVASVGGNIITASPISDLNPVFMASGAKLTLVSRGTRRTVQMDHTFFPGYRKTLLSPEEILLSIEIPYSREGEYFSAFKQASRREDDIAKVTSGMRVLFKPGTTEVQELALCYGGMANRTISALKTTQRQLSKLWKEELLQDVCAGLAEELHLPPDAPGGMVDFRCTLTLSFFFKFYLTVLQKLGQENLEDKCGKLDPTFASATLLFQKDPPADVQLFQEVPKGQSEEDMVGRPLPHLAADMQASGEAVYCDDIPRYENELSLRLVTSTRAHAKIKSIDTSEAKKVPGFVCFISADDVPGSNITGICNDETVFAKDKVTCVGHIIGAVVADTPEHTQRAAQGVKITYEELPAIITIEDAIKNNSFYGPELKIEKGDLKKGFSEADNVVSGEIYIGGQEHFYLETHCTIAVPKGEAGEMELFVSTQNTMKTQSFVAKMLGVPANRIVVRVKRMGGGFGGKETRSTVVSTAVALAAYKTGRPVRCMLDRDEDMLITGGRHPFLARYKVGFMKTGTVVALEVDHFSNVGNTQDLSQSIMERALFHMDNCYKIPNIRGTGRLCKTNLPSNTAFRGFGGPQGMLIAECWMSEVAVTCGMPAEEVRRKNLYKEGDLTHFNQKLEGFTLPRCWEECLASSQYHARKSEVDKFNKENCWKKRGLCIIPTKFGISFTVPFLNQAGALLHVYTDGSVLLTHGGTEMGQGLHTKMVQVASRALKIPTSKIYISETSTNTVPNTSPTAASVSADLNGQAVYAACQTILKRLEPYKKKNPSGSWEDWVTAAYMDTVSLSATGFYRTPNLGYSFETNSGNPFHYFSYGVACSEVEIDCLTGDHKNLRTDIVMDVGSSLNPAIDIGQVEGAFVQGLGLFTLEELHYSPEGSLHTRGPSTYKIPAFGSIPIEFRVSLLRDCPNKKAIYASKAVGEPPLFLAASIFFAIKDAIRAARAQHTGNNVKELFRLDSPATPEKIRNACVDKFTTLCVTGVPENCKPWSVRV

IC50 [µM] | SMILES
> 200 | Cn1c(=O)[nH]c2nc[nH]c2c1=O [1-METHYLXANTHINE]
> 200 | Nc1nc(N)c2[nH]cnc2n1 [2,6-DIAMINOPURINE]
> 200 | Nc1nc(Cl)c2nc[nH]c2n1 [6-CHLOROGUANINE]
> 200 | COc1nc(N)nc2nc[nH]c12 [METHYLGUANINE]
92.4 | Nc1nc2nc[nH]c2c(=S)[nH]1 [THIOGUANINE]

Continued, compound first:

SMILES | IC50 [µM]
Cc1ccc2[nH]cnc2c1 | > 200
O=[N+]([O-])c1ccc2[nH]cnc2c1 | 86.8
Nc1ncnc2[nH]ncc12 | 30.3
Nc1ncc2[nH]cnc2n1 [2-AMINOPURINE] | > 200
Cc1cc2nc[nH]c2cc1C [DIMEDAZOL] | > 200

target: T1, Xanthine dehydrogenase/oxidase; assay: Inhibition of human xanthine oxidase at 30 uM

inhibition at 30 µM [%] | SMILES
49.8 | Nc1ncnc2[nH]ncc12
61.3 | Nc1[nH]cnc2ncnc1-2 [ADENINE]

SMILES | inhibition at 30 µM [%]
Oc1ncnc2[nH]ncc12 [ALLOPURINOL] | 93.8
